# Experimental data as given in paper PMC10653868, “The LytS-type histidine kinase BtsS is a 7-transmembrane receptor that binds pyruvate” (mBio, 2023).
# Legend:
# Test in all cases: DRaCALA with […]-pyruvate and competition with cold pyruvate, membrane vesicles
# Format in all cases: binding
# BtsS [1] = biological target: T1, BtsS (Escherichia coli, UniProt P0AD14, S113A)
# T1 construct: BtsS-S113A-6His in membrane vesicles of E. coli MG1655 ΔbtsSRΔypdABC
# BtsS [2] = biological target: T2, BtsS (Escherichia coli, UniProt P0AD14, R99A)
# T2 construct: BtsS-R99A-6His in membrane vesicles of E. coli MG1655 ΔbtsSRΔypdABC
# BtsS [3] = biological target: T3, BtsS (Escherichia coli, UniProt P0AD14)
# T3 construct: BtsS-6His in membrane vesicles of E. coli MG1655 ΔbtsSRΔypdABC
# BtsS [4] = biological target: T4, BtsS (Escherichia coli, UniProt P0AD14, R72A)
# T4 construct: BtsS-R72A-6His in membrane vesicles of E. coli MG1655 ΔbtsSRΔypdABC
# BtsS [5] = biological target: T5, BtsS (Escherichia coli, UniProt P0AD14, C110A)
# T5 construct: BtsS-C110A-6His in membrane vesicles of E. coli MG1655 ΔbtsSRΔypdABC
# T5 sequence (P0AD14 whole entry C110A): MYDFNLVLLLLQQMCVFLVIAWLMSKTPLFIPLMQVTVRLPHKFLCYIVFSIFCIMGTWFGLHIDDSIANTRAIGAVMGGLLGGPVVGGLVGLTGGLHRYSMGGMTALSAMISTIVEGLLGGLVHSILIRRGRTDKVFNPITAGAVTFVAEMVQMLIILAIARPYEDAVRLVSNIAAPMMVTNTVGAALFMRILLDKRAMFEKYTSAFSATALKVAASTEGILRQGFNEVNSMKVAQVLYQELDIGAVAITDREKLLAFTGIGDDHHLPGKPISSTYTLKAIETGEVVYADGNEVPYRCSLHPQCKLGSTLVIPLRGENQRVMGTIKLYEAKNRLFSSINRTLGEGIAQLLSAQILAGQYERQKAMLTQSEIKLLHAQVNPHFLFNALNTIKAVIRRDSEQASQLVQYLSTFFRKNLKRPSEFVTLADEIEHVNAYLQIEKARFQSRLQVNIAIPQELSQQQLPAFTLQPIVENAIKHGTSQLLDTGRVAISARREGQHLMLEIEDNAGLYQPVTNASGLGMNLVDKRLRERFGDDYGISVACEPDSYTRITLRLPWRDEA
# T4 sequence (P0AD14 whole entry R72A): as the sequence (P0AD14 whole entry C110A) above, with R72A, A110C counted along it
# T3 sequence (P0AD14 whole entry): as the sequence (P0AD14 whole entry C110A) above, with A110C counted along it
# T2 sequence (P0AD14 whole entry R99A): as the sequence (P0AD14 whole entry C110A) above, with R99A, A110C counted along it
# T1 sequence (P0AD14 whole entry S113A): as the sequence (P0AD14 whole entry C110A) above, with A110C, S113A counted along it
structure (smiles),measurement,setting,value
CC(=O)C(=O)O [pyruvate],Kd,BtsS [1],284 ± 8 µM
same,Kd,BtsS [2],245 ± 10.1 µM
same,Kd,BtsS [3],67.3 ± 10.6 µM
same,Kd,BtsS [4],107 ± 12.3 µM
same,Kd,BtsS [5],375 ± 21.2 µM
